18 compounds from US9296741B2, “Bromodomain inhibitors” (priority 2012, dated 2016) can be followed below.

The nature of series [1]: Human liver microsome stability assay. Format: in vitro ADME. To be noted: both sexes, human, microsomes, pH 7.4. (Microsomes from liver hold many membrane-bound enzymes, among them those of drug oxidation.)
In series [2] the target is human BRD4 first bromodomain (BDI_K57-E168) (Homo sapiens (Human), UniProt O60885). Briefly: TR-FRET bromodomain binding assay, BRD4 first bromodomain. (In general: In TR-FRET formats the signal depends on donor and acceptor labels being close together.)
Series [3] can be described thus: Mouse liver microsome stability assay. Format: in vitro ADME. As to conditions: male, CD1, mouse, microsomes, pH 7.4.
The subject of series [4] is breast cancer cell line MX-1. Briefly: MX-1 cell line proliferation assay. To be noted: Homo sapiens, MX1, 72 h; MX-1 cells, 3-day proliferation, Cell Titer Glo; read-out: Cellular proliferation: EC50. Format: cell-based, human.
Series [5] can be described thus: Rat liver microsome stability assay. Format: in vitro ADME. As to conditions: rat liver microsomes (male Sprague-Dawley), 0.5 μM test compound, pH 7.4, 37° C.; for half-life at 0.5 μM: 0.25 mg/mL microsomal protein, read-out: Stability in rat liver microsomes (t1/2 in minutes); for Stability in rat liver microsomes (t1/2 in minutes): […] microsomal protein.
Series [6] concerns the target human BRD4 second bromodomain (BDII_E352-M457) (Homo sapiens (Human), UniProt O60885). Put plainly: TR-FRET bromodomain binding assay, BRD4 second bromodomain.

Molecules are shown by their SMILES. Where only a bound is given, the exact number is not on record here.

`CCNC(=O)c1ccc(Oc2ccccc2)c(-c2cn(C)c(=O)c3[nH]ccc23)c1` [Example 13, N-ethyl-3-(6-methyl-7-oxo-6,7-dihydro-1H-pyrrolo[2,3-c]pyridin-4-yl)-4-phenoxybenzamide]: the half-life at 0.5 μM stood at 66 min in series [1], 22 min in series [3] and 2 min in series [5]. The values for the Ki in series [2] and in series [6] were 3.7 nM and 3.4 nM, respectively. The EC50 in series [4] worked out at 128 nM.
Take `CCCS(=O)(=O)Nc1ccc(Oc2c(F)cc(F)cc2F)c(-c2cn(C)c(=O)c3[nH]ccc23)c1` [Example 94, N-[3-(6-methyl-7-oxo-6,7-dihydro-1H-pyrrolo[2,3-c]pyridin-4-yl)-4-(2,4,6-trifluorophenoxy)phenyl]propane-1-sulfonamide]: the results for the half-life at 0.5 μM in series [1], in series [3] and in series [5] were 47 min, 25 min and 28 min, respectively. The Ki in series [2] stood at 16.2 nM; in series [6], 10 nM. Also, the EC50 in series [4] is 110 nM.
In the case of `Cn1cc(-c2cc(C(=O)NCc3ccncc3)ccc2Oc2ccc(F)cc2F)c2cc[nH]c2c1=O` [Example 121, 4-(2,4-difluorophenoxy)-3-(6-methyl-7-oxo-6,7-dihydro-1H-pyrrolo[2,3-c]pyridin-4-yl)-N-(pyridin-4-ylmethyl)benzamide], the half-life at 0.5 μM is 21 min in series [1], 24 min in series [3] and 25 min in series [5]. For the same compound, the Ki stood at 15.5 nM in series [2] and 33.4 nM in series [6]. Moreover, in series [4], the EC50 was 251 nM.
In the case of `Cn1cc(-c2cc(NS(C)(=O)=O)ccc2OC2CCOC2)c2cc[nH]c2c1=O` (stereo not drawn) [Example 31, N-[3-(6-methyl-7-oxo-6,7-dihydro-1H-pyrrolo[2,3-c]pyridin-4-yl)-4-(tetrahydrofuran-3-yloxy)phenyl]methanesulfonamide], the figures for the half-life at 0.5 μM in series [1], in series [3] and in series [5] were 56 min, 19 min and over 120 min, respectively. The results for the Ki in series [2] and in series [6] were 1.8 nM and 13.4 nM, respectively. Moreover, the EC50 in series [4] came out at 39.8 nM.
In the case of `CC(=O)Nc1ccc(Oc2ccccc2)c(-c2cn(C)c(=O)c3[nH]ccc23)c1` [Example 6, N-[3-(6-methyl-7-oxo-6,7-dihydro-1H-pyrrolo[2,3-c]pyridin-4-yl)-4-phenoxyphenyl]acetamide], the half-life at 0.5 μM in series [1] was determined as 30 min; in series [3] it was 3 min; in series [5] it was 7 min. Moreover, the Ki in series [2] is 5.3 nM; in series [6], 5.8 nM. The EC50 in series [4] was 46 nM.
Consider `Cn1cc(-c2cc(S(C)(=O)=O)ccc2OCC2CCCC2)c2cc[nH]c2c1=O` [Example 214, 4-[2-(cyclopentylmethoxy)-5-(methylsulfonyl)phenyl]-6-methyl-1,6-dihydro-7H-pyrrolo[2,3-c]pyridin-7-one], for which the half-life at 0.5 μM in series [1] amounted to 27 min; in series [3], 8 min; in series [5], 9 min. The Ki in series [2] was found to be 2.4 nM; in series [6] it was 1.7 nM. Moreover, the EC50 in series [4] came to 10.5 nM.
As for `CCOC(=O)c1cc2c(-c3cc(NS(C)(=O)=O)ccc3Oc3ccccc3)cn(C)c(=O)c2[nH]1` [Example 71, ethyl 6-methyl-4-{5-[(methylsulfonyl)amino]-2-phenoxyphenyl}-7-oxo-6,7-dihydro-1H-pyrrolo[2,3-c]pyridine-2-carboxylate], the half-life at 0.5 μM came to 2 min in series [1] and 6 min in series [3]. Further, the Ki in series [2] turned out to be 0.81 nM; in series [6] it was 1.2 nM. Besides, the EC50 in series [4] was determined as 17.5 nM. The “Stability in rat liver microsomes (t1/2 in minutes)” value (from here on “Stability in rat liver microsomes”) in series [5] stood at 1 min.
As for `CCNC(=O)c1cc2c(-c3cc(NS(C)(=O)=O)ccc3Oc3ccccc3)cn(C)c(=O)c2[nH]1` [Example 72, N-ethyl-6-methyl-4-{5-[(methylsulfonyl)amino]-2-phenoxyphenyl}-7-oxo-6,7-dihydro-1H-pyrrolo[2,3-c]pyridine-2-carboxamide], the half-life at 0.5 μM was found to be 34 min in series [1] and 70 min in series [3]. For the same compound, the results for the Ki in series [2] and in series [6] were 1.5 nM and 1.1 nM, respectively. Besides, in series [4], the EC50 came to 45.7 nM. Also, the “Stability in rat liver microsomes” value in series [5] was 1 min.
Consider `CCS(=O)(=O)c1ccc(OC2CCN(C)CC2)c(-c2cn(C)c(=O)c3[nH]ccc23)c1` [Example 170, 4-{5-(ethylsulfonyl)-2-[(1-methylpiperidin-4-yl)oxy]phenyl}-6-methyl-1,6-dihydro-7H-pyrrolo[2,3-c]pyridin-7-one], for which the figures for the half-life at 0.5 μM in series [1], in series [3] and in series [5] were over 120 min, 27 min and 113 min, respectively. In addition, the values for the Ki in series [2] and in series [6] were 22.8 nM and 94 nM, respectively. The EC50 in series [4] came to 332 nM.
For the compound `Cn1cc(-c2cc(CO)ccc2Oc2ccccc2)c2cc[nH]c2c1=O` [Example 20, 4-[5-(hydroxymethyl)-2-phenoxyphenyl]-6-methyl-1,6-dihydro-7H-pyrrolo[2,3-c]pyridin-7-one], the half-life at 0.5 μM in series [1] amounted to 18 min; in series [3], 7 min. Further, the results for the Ki in series [2] and in series [6] were 10.9 nM and 0.68 nM, respectively. Besides, the EC50 in series [4] amounted to 190 nM. In series [5], the “Stability in rat liver microsomes” value turned out to be 1 min.
Turning to `Cn1nc(-c2cc(N)ccc2Oc2ccc(F)cc2F)c2cc[nH]c2c1=O` [Example 148, 4-[5-amino-2-(2,4-difluorophenoxy)phenyl]-6-methyl-1,6-dihydro-7H-pyrrolo[2,3-d]pyridazin-7-one], the values for the half-life at 0.5 μM in series [1], in series [3] and in series [5] were 58 min, 6 min and 2 min, respectively. Besides, the Ki in series [2] worked out at 205 nM; in series [6], 152 nM. Also, the EC50 in series [4] was 740 nM.
Turning to `Cn1cc(-c2cc(NS(C)(=O)=O)ccc2OCc2ccccc2)c2cc[nH]c2c1=O` [Example 63, N-[4-(benzyloxy)-3-(6-methyl-7-oxo-6,7-dihydro-1H-pyrrolo[2,3-c]pyridin-4-yl)phenyl]methanesulfonamide], the half-life at 0.5 μM stood at 39 min in series [1], 18 min in series [3] and 13 min in series [5]. In addition, the Ki in series [2] was found to be 18 nM; in series [6], 42.7 nM. The EC50 in series [4] turned out to be 105 nM.
For the compound `Cc1ccc(Oc2ccc(S(C)(=O)=O)cc2-c2cn(C)c(=O)c3[nH]ccc23)cc1` [Example 177, 6-methyl-4-[2-(4-methylphenoxy)-5-(methylsulfonyl)phenyl]-1,6-dihydro-7H-pyrrolo[2,3-c]pyridin-7-one], the half-life at 0.5 μM in series [1] was 16 min; in series [3] it was 18 min; in series [5] it was 6 min. The Ki was 11.3 nM in series [2] and 4.4 nM in series [6]. Further, in series [4], the EC50 was 53.5 nM.
As for `Cn1cc(-c2cc(C(=O)NC3CCCC3)ccc2Oc2ccccc2)c2cc[nH]c2c1=O` [Example 15, N-cyclopentyl-3-(6-methyl-7-oxo-6,7-dihydro-1H-pyrrolo[2,3-c]pyridin-4-yl)-4-phenoxybenzamide], the half-life at 0.5 μM in series [1] was found to be 10 min; in series [3], 7 min; in series [5], 4 min. The results for the Ki in series [2] and in series [6] were 4.2 nM and 7.5 nM, respectively. In addition, the EC50 in series [4] stood at 140 nM.
For the compound `Cn1cc(-c2cc(S(C)(=O)=O)ccc2Oc2ccc(F)cc2F)c2cc(C(=O)N3CCOCC3)[nH]c2c1=O` [Example 255, 4-[2-(2,4-difluorophenoxy)-5-(methylsulfonyl)phenyl]-6-methyl-2-(morpholin-4-ylcarbonyl)-1,6-dihydro-7H-pyrrolo[2,3-c]pyridin-7-one], the half-life at 0.5 μM was 70 min in series [1], over 120 min in series [3] and over 120 min in series [5]. For the same compound, the Ki came out at 10.5 nM in series [2] and 154 nM in series [6]. In series [4], the EC50 is 265 nM.
On to `Cn1cc(-c2cc(CS(=O)(=O)c3ccccc3)ccc2Oc2ccc(F)cc2F)c2cc[nH]c2c1=O` [Example 306, 4-{2-(2,4-difluorophenoxy)-5-[(phenylsulfonyl)methyl]phenyl}-6-methyl-1,6-dihydro-7H-pyrrolo[2,3-c]pyridin-7-one], for which the values for the half-life at 0.5 μM in series [1], in series [3] and in series [5] were 11 min, 3 min and 9 min, respectively. For the same compound, the values for the Ki in series [2] and in series [6] were 82.2 nM and 63.9 nM, respectively. The EC50 in series [4] was found to be 51.6 nM.
For `Cn1cc(-c2cc(S(=O)(=O)N3CCOCC3)ccc2Oc2ccc(F)cc2F)c2cc[nH]c2c1=O` [Example 293, 4-[2-(2,4-difluorophenoxy)-5-(morpholin-4-ylsulfonyl)phenyl]-6-methyl-1,6-dihydro-7H-pyrrolo[2,3-c]pyridin-7-one], the half-life at 0.5 μM came out at 4 min in series [1], 3 min in series [3] and 9 min in series [5]. The results for the Ki in series [2] and in series [6] were 180 nM and 19.3 nM, respectively. Also, the EC50 in series [4] amounted to 381 nM.
In the case of `Cn1cc(-c2cc(NS(=O)(=O)CCF)ccc2OC2CCOC2)c2cc[nH]c2c1=O` (stereo not drawn) [Example 91, 2-fluoro-N-[3-(6-methyl-7-oxo-6,7-dihydro-1H-pyrrolo[2,3-c]pyridin-4-yl)-4-(tetrahydrofuran-3-yloxy)phenyl]ethanesulfonamide], the results for the half-life at 0.5 μM in series [1], in series [3] and in series [5] were 17 min, 7 min and 7 min, respectively. The figures for the Ki in series [2] and in series [6] were 12.2 nM and 87.4 nM, respectively. Moreover, the EC50 in series [4] amounted to 240 nM.

The Ki is the equilibrium dissociation constant of an inhibitor or competing ligand from its target.
